This is an account of results in patent publication US12329159B2, “Systems and methods for use of chlorine dioxide in cultivation and post-harvest applications” (Prokure Solutions, LLC, priority 2018, dated 2025).

What all share (type): in vivo
One series has as its system Cannabis plants. Kind of series: Toxicity responses of Cannabis plants to applications of gaseous chlorine dioxide. The text has this: Two varieties of Cannabis plants in both vegetative and flowering stages were exposed to various amounts of chlorine dioxide gas to determine if plant damage would result. Adverse effects were based on discoloration or chlorosis type damage to leaves and/or flowers. Leaves of each plant were collected prior to experiments and again 2 days post treatment for tissue analysis. Leaf samples were sent to a third-party laboratory for analysis of nutrients and total chloride (Cl^−). Tissue analysis of leaves pre- and post-treatment were compared to determine uptake of chlorine dioxide and/or its by-products. Control plants were used for visual comparison in determining plant damage. All plants were monitored for several days after application of chlorine dioxide gas. Plants were potted in soil and appeared healthy and undamaged unless otherwise noted. All plants including controls were of the same age for each growth stage. • The chlorine dioxide gas exposure was based on concentration with units of mg of chlorine dioxide per cubic foot of space.
A first trial was performed in a space of 1550 cubic feet with four healthy plants in the space, two of which were in flower at week 5 of 8, and the other two of which had one week of vegetative stage remaining. The chlorine dioxide dose was 1.9 mg chlorine dioxide per cubic foot of space (one 25 g ProKure® G Fast Release Gas packet (ProKure® Solutions, Phoenix, AZ) and 4 liters of 500 ppm chlorine dioxide solution). Contact time was 18 hours, and the room was maintained in darkness for the duration of the contact time.
A second trial was performed in a space of about 33400 cubic feet with 840 flowering plants at week eight of an eight-week cultivation cycle. All plants were healthy. […] The chlorine dioxide dose was 0.45 mg chlorine dioxide gas per cubic foot of space. Contact time was 18 hours, and the room was maintained in darkness for the first 12 hours, and grow lights came on for the last 6 hours of contact time, but the chlorine dioxide gas concentration monitoring was only performed for about 10 hours.

A further series has as its system Ascospores. Kind of series: Spore trap testing, treated greenhouse: Ascospores. The settings on record: 1.2 mg chlorine dioxide gas per hour per 4000 cubic feet. The method, then:
(§1) Very low-level chlorine dioxide protection using about 3 mg chlorine dioxide gas per hour for every 4000 cubic feet (50-gram ProKure® D Extended Release Gas product (ProKure® Solutions), 2000 mg total over 4 weeks) was tested to determine the effects on reduction and prevention of fungal microorganism counts. The rate of chlorine dioxide production will vary depending on the relative humidity (RH) in the room. The above rate is for RH range of 40-60%. Each 3 mg chlorine dioxide per hour product (50-gram) unit will cover 4000 cubic feet of space. The 4000 cubic foot volume is recommended for safety reasons. This volume of space insures that the concentration of the gas remains below the OSHA regulated Permissible Exposure Limit (PEL) which is 0.1 ppmv (time weighted average (TWA) over a 8-hours per day or 40-hour work week) and the Short Term Exposure Limit (STEL) which is 0.3 ppmv (TWA over any 15-minute period) for chlorine dioxide.
(§2) All data is based on the dose described a unless otherwise noted. The spore counts per cubic meter prior to treatment are compared to spore counts per cubic meter post treatment with the treatment time indicated. […]
(§3) Treatment was performed using 1.2 mg chlorine dioxide gas per hour per 4000 cubic feet. […] The fungus could not be detected by visual inspection after about 30 days of treatment. […]

The subject of the next series is Ulocladium. Kind of series: Spore trap testing, treated greenhouse: Ulocladium. The settings on record: 1.2 mg chlorine dioxide gas per hour per 4000 cubic feet. The method, then: as §1, §2, §3
For another series, the system named is Smuts/Myxomycetes. Kind of series: Spore trap testing, treated greenhouse: Smuts/Myxomycetes. The settings on record: 1.2 mg chlorine dioxide gas per hour per 4000 cubic feet. As for the experimental part: as §1, §2, §3
The subject of series [1] is visible mold growing on flowers. Kind of series: Trial 3: gaseous chlorine dioxide treatment of flowering plants with visible mold. The note with it: 0.45 mg chlorine dioxide gas per cubic foot, 18 hours. As for the experimental part: A third trial was performed in a 33400 cubic foot space with 840 flowering plants at week eight of an eight-week cultivation cycle. Most plants had visible mold growing on flowers. The chlorine dioxide dose was 0.45 mg chlorine dioxide gas per cubic foot of space. Contact time was 18 hours, the room was maintained in darkness for the first 12 hours, and grow lights came on for the last 6 hours contact time, but the chlorine dioxide gas concentration monitoring was only performed for about 10 hours.
The HVAC system for the 33400 cubic foot space that had 840 flowering plants in the last week of flower failed. Within hours the temperature and humidity increased, and visible mold growth was found on most of the flower within 24 hours. To treat the mold and potentially prevent the loss of over 100 pounds of Cannabis flower product, a dose of 0.45 mg chlorine dioxide gas per cubic foot was dispensed into the space (14× ProKure® G Fast Release Gas packets (25-gram) (ProKure® Solutions)). […] Essentially, it was never above the detection limit of the sensor (0.5 ppmv). […] An odor would be expected for this application rate, so the lack of odor provides further evidence that the concentration of chlorine dioxide remained below the odor threshold of about 0.03 to 0.1 ppmv. […]

The subject of the next series is Alternaria. Kind of series: Spore trap testing, treated greenhouse: Alternaria. The settings on record: 1.2 mg chlorine dioxide gas per hour per 4000 cubic feet. As for the experimental part: as §1, §2, §3
In another series the test system is Cladosporium. Kind of series: Spore trap testing, treated greenhouse: Cladosporium. The note with it: 1.2 mg chlorine dioxide gas per hour per 4000 cubic feet. As for the experimental part:
as §1, §2, §3

The next series concerns Chaetomium. Kind of series: Spore trap testing, treated greenhouse: Chaetomium. The settings on record: 1.2 mg chlorine dioxide gas per hour per 4000 cubic feet. As for the experimental part: as §1, §2, §3
A further series deals with Aureobasidium. Kind of series: Spore trap testing, treated greenhouse: Aureobasidium. The settings on record: 1.2 mg chlorine dioxide gas per hour per 4000 cubic feet. The method, then:
as §1, §2, §3

For the next series, the system named is total spores. Kind of series: Spore trap testing, treated greenhouse: Total spores. The note with it: 1.2 mg chlorine dioxide gas per hour per 4000 cubic feet. The method, then: as §1, §2, §3

Regarding `[O][Cl+][O-]` [chlorine dioxide], the “assessment of the dose” value in the series with Cannabis plants (Trial 1, 1.9 mg chlorine dioxide per cubic foot) is recorded as “considered detrimental”. For the same compound, the plant death entry in the series on Cannabis plants (Trial 1, 1.9 mg chlorine dioxide per cubic foot, 18 hours) was “none of the 4 plants died”. Besides, the plant damage result in the series with Cannabis plants (Trial 1, 1.9 mg chlorine dioxide per cubic foot, 18 hours, 24-48 hours post-treatment) was “all 4 plants showed damage in the form of yellowing and chlorosis”; in the series on Cannabis plants (Trial 2, 0.45 mg chlorine dioxide per cubic foot, 18 hours, 840 healthy flowering plants), “All plants remained healthy and undamaged”. In addition, the plant appearance entry with Cannabis plants (Trial 1, 1.9 mg chlorine dioxide per cubic foot, immediately following the 18 hours of contact time) was “the plants still appeared healthy”. Also, the “Ascospores Count” value amounted to 27 per cubic meter in the series on Ascospores (7 Days Post-Treatment) and 0 per cubic meter in the series on Ascospores (45 Days Post-Treatment). Further, the “Ulocladium spore Count” value with Ulocladium (7 Days Post-Treatment) and with Ulocladium (45 Days Post-Treatment) was 0 per cubic meter each time. The “Smuts/Myxomycetes spore Count” value in the series on Smuts/Myxomycetes (7 Days Post-Treatment) was 173 per cubic meter; with Smuts/Myxomycetes (45 Days Post-Treatment), 13 per cubic meter. The “visible mold on the plants after the application” value in [1] is reported as “No mold was visible on the plants after the application”. Further, the “Alternaria spore Count” value with Alternaria (7 Days Post-Treatment) and in the series with Alternaria (45 Days Post-Treatment) was 0 per cubic meter each time. Further, the “Cladosporium spore Count” value in the series on Cladosporium (7 Days Post-Treatment) was 54 per cubic meter; in the series on Cladosporium (45 Days Post-Treatment), 0 per cubic meter. In addition, the “Chaetomium spore Count” value in the series with Chaetomium (7 Days Post-Treatment) and in the series on Chaetomium (45 Days Post-Treatment) was 0 per cubic meter in each case. Also, the “Aureobasidium spore Count” value with Aureobasidium (7 Days Post-Treatment) and in the series with Aureobasidium (45 Days Post-Treatment) was 0 per cubic meter each time. The “Total spore Count” value with total spores (7 Days Post-Treatment) was 320 per cubic meter; in the series with total spores (45 Days Post-Treatment), 13 per cubic meter.
